Patent US10029993B2, “Disubstituted 1, 2, 4-triazine compound” (MITSUBISHI TANABE PHARMA CORPORATION, priority 2014, dated 2018)

What follows are compounds tested against human CYP11B2 (Homo sapiens (Human), UniProt P19099) (assay: Inhibitory effect on hCYP11B2 (aldosterone production by mitochondrial fraction of V79 cells stably expressing human CYP11B2, HTRF)). Conditions: 0.5 μmol/L deoxycorticosterone, 150 μmol/L NADPH, 1.5-2 hours at room temperature.
Format: biochemical
Protocol: Experimental Example 1 (Inhibitory Effect on hCYP11B2)
The pcDNA3.1-human CYP11B2 plasmid was transfected into a Chinese hamster lung fibroblast V79 cell line to produce a cell line stably expressing human CYP11B2 gene.
The cells were cultured and grown in the Dulbecco's modified Eagle's/Ham's medium supplemented with 10% fetal bovine serum and 1% G418 disulfate solution under the environment of 37° C., 95% air, and 5% CO2, and the grown cells were harvested.
Then, the cells were fractionated to obtain mitochondria by reference to a method described in Chabre et al. JCE 86 M 85 (11) 4060-68, 2000. In particular, the cells suspended in a 5 mmol/L Tris-HCl buffer (pH 7.4) containing 250 mmol/L sucrose were homogenized in a Teflon (Registered Trademark) Potter Elvehjem homogenizer, and then the suspension was centrifuged (800×g, 15 min.). The supernatant was separated and again centrifuged (10000×g, 15 min.) to obtain a pellet (mitochondrial fraction).
The mitochondrial fraction diluted with a buffer containing 10 mmol/L KH2PO4, 10 mmol/L Tris, 20 mmol/L KCl, 25 mmol/L sucrose, 5 mmol/L MgCl2, and 0.05% bovine serum albumin was dispensed to a 96-well plate. 0.5 μmol/L Deoxycorticosterone, 150 μmol/L NADPH and a compound of each concentration were added to each well, and incubated for 1.5-2 hours at room temperature to produce aldosterone. An amount of the produced aldosterone in the incubated solution was determined by using HTRF (Homogeneous Time Resolved Fluorescence) method.
IC 50 (nmol/L) was calculated by analyzing the aldosterone production inhibition rate (%) of each concentration of compounds by non-linear regression to a logistic curve.

Sequence of human CYP11B2 (P19099 25-503): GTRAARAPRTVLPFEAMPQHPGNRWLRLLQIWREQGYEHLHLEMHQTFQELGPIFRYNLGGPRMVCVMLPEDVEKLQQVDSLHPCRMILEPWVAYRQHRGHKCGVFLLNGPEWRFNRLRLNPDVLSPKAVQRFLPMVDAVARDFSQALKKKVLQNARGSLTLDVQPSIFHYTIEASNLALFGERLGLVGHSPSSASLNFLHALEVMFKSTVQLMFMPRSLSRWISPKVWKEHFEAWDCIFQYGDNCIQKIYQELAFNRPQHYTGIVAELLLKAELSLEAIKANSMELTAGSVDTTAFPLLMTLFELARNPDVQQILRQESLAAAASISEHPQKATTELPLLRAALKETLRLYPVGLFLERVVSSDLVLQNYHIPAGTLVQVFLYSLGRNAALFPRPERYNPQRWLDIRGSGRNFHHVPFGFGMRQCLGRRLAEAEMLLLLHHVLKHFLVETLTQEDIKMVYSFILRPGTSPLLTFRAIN

IC50 [nM]	Compound
15	CN(C)[C@H]1CC[C@H](NC(=O)C(O)C2CCN(c3nncc(-c4ccc(F)cc4)n3)CC2)CC1 (relative stereo) [Example 252, 3-[4-[[[trans-4-(dimethylamino)cyclohexyl]carbamoyl]hydroxymethyl]piperidino]-5-(4-fluorophenyl)-1,2,4-triazine]
16	CC(C)[C@@H](CO)NC(=O)CN1CCN(c2nncc(-c3ccc(C(F)(F)F)cc3)n2)CC1 [Example 16]
7.2	CN1CC[C@H](NC(=O)CN2CCN(c3nncc(-c4ccc(Cl)cc4)n3)CC2)CC1=O [Example 54]
19	NC(=O)N1CCC(O)(CNC(=O)CN2CCN(c3nncc(-c4ccc(Cl)cc4)n3)CC2)CC1 [Example 59]
10	Cc1ccc(-c2cnnc(N3CCN(CC(=O)NC4CCN(CCNS(C)(=O)=O)CC4)CC3)n2)cc1 [Example 62]
6.1	CN(C)C(=O)Cn1cc(NC(=O)CN2CCN(c3nncc(-c4ccc(F)cc4)n3)CC2)cn1 [Example 71]
7.6	Cc1ccc(-c2cnnc(N3CCN(CC(=O)Nc4cnn(CC(=O)N(C)C)c4)CC3)n2)cc1 [Example 75]
4.5	CN(C)C(=O)Cn1cc(NC(=O)CN2CCN(c3nncc(-c4ccc(Cl)cc4)n3)CC2)cn1 [Example 76]
4.5	CNC(=O)Cn1cc(NC(=O)CN2CCN(c3nncc(-c4ccc(C)cc4)n3)CC2)cn1 [Example 79]
4.5	CNC(=O)Cn1cc(NC(=O)CN2CCN(c3nncc(-c4ccc(F)cc4)n3)CC2)cn1 [Example 80]
2.7	CNC(=O)Cn1cc(NC(=O)CN2CCN(c3nncc(-c4ccc(Cl)cc4)n3)CC2)cn1 [Example 81]
25	CN1CC[C@H](NC(=O)CN2CCN(c3nncc(-c4ccc5c(c4)COC5)n3)CC2)CC1=O [Example 84]
9.9	CNC(=O)CN1CCC(NC(=O)CN2CCN(c3nncc(-c4ccc(C)cc4)n3)CC2)CC1 [Example 85]
0.5	Cc1ccccc1-c1cnnc(N2CCN(CC(=O)Nc3cccnc3)CC2)n1 [Example 86]
23	Cc1ccccc1-c1cnnc(N2CCN(c3ccc(F)cc3)CC2)n1 [Example 170, 3-[4-(4-fluorophenyl)piperazin-1-yl]-5-(o-tolyl)-1,2,4-triazine]
6.1	CC(C)NC(=O)NC1CCN(c2nncc(-c3ccc(F)cc3)n2)CC1 [Example 180]

IC50 [nM]	Compound
0.7	Cc1ccccc1-c1cnnc(N2CCC(CCCO)CC2)n1 [Example 183]
6	Cc1ccccc1-c1cnnc(N2CC[C@@H](Oc3ccncc3)C2)n1 [Example 188]
38	CN(CCCS(C)(=O)=O)c1nncc(-c2ccc3ccccc3c2)n1 [Example 192]
67	CC(=O)N1CCC(CNc2nncc(-c3ccc4ccccc4c3)n2)CC1 [Example 196]
12	O=C1NCC2(CCN(c3nncc(-c4ccc5ccccc5c4)n3)CC2)O1 [Example 199]
2.4	Cn1c(-c2cnnc(N3CCOCC3)n2)cc2ccccc21 [Example 211, 5-(1-methyl-1H-indol-2-yl)-3-morpholino-1,2,4-triazine]
29	CC(C)NC(=O)CN1CCN(c2nncc(-c3ccc(C#N)nc3)n2)CC1 [Example 215, 5-(2-cyano-5-pyridyl)-3-[4-(isopropylcarbamoylmethyl)piperazin-1-yl]-1,2,4-triazine]
3.1	CC(C)NC(=O)CN1CCN(c2nncc(-c3ccc4c(c3)CCO4)n2)CC1 [Example 219]
20	CC(C)NC(=O)CN1CCN(c2nncc(-c3ccc4ncsc4c3)n2)CC1 [Example 220]
2.4	CC(C)NC(=O)CN1CCN(c2nncc(-c3ccc(C(F)(F)F)cc3)n2)CC1 [Example 221]
26	CC(C)NC(=O)CN1CCN(c2nncc(-c3ccc4c(c3)CNN4C)n2)CC1 [Example 222]
23	Cc1ccccc1-c1cnnc(N(Cc2ccccn2)S(C)(=O)=O)n1 [Example 236, 3-[N-(methylsulfonyl)-N-(2-pyridylmethyl)amino]-5-(o-tolyl)-1,2,4-triazine]
11	Cc1ccccc1-c1cnnc(C2CCCN(c3ncccn3)C2)n1 (stereo not drawn) [Example 244, 3-[1-(pyrimidine-2-yl)-piperidin-3-yl]-5-(o-tolyl)-1,2,4-triazine]
7.5	CC(C)CC(=O)NN1CCN(c2nncc(-c3ccc(Cl)cc3)n2)CC1 [Example 251, 5-(4-chlorophenyl)-3-[4-[(3-methylbutanoyl)amino]piperazin-1-yl]-1,2,4-triazine]
13	CN(C)[C@@H]1CCC[C@H](NC(=O)CN2CCN(c3nncc(-c4ccc(F)cc4)n3)CC2)C1 [compound 160]
6.1	C[C@H]1COCCC1NC(=O)CN1CCN(c2nncc(-c3ccc(Cl)cc3)n2)CC1 (stereo partly drawn) [compound 161]

Second part, the compound before the results:

Compound	IC50 [nM]
CN(C)[C@H]1CC[C@H](NC(=O)CN2CCN(c3nncc(-c4ccc(Cl)cc4)n3)CC2)CC1 [Example 18]	7.9
CO[C@H]1CC[C@H](NC(=O)CN2CCN(c3nncc(-c4ccc5c(cnn5C)c4)n3)CC2)CC1 [Example 19]	17
O=C1CN([C@H]2CC[C@H](NC(=O)CN3CCN(c4nncc(-c5ccc(F)cc5)n4)CC3)CC2)CCN1 [Example 26]	8.5
O=C(CN1CCN(c2nncc(-c3ccc(Cl)cc3)n2)CC1)NC1CCS(=O)(=O)CC1 [Example 27]	13
O=C(CN1CCN(c2nncc(-c3ccc(F)cc3)n2)CC1)N[C@H]1CC[C@H](N2CCOCC2)CC1 [Example 28]	8.4
O=C(CN1CCN(c2nncc(-c3ccc(F)cc3)n2)CC1)NC1CCN(CC(=O)N2CCOCC2)CC1 [Example 38]	14
CNC(=O)CN1CCC(NC(=O)CN2CCN(c3nncc(-c4ccc(F)cc4)n3)CC2)CC1 [Example 44]	17
O=C(CN1CCN(c2nncc(-c3ccc(F)cc3)n2)CC1)NCCN1CCS(=O)(=O)CC1 [Example 47]	11
CC(=O)N[C@H]1CC[C@H](NC(=O)CN2CCN(c3nncc(-c4ccc(C)cc4)n3)CC2)CC1 [Example 48]	9
Cc1ccc(-c2cnnc(N3CCN(CC(=O)N[C@H]4CC[C@H](S(C)(=O)=O)CC4)CC3)n2)cc1 [Example 50]	6.3
CNC(=O)CO[C@H]1CC[C@H](NC(=O)CN2CCN(c3nncc(-c4ccc(F)cc4)n3)CC2)CC1 [Example 55]	8.7
CN1CCNC(=O)C12CCC(NC(=O)CN1CCN(c3nncc(-c4ccc(F)cc4)n3)CC1)CC2 (stereo not drawn) [Example 82]	12
CN(C)[C@H]1CC[C@H](NC(=O)CN2CCN(c3nncc(-c4cc(F)ccc4F)n3)CC2)CC1 [Example 83]	7.6
O=C(CN1CCN(c2nncc(-c3ccc(F)cc3)n2)CC1)NC1CN(C(=O)C2(O)CC2)C1 [Example 141]	11
Cc1ncc(CN2CCC(NC(=O)CN3CCN(c4nncc(-c5ccc(F)cc5)n4)CC3)CC2)[nH]1 [Example 147]	18
O=C(CN1CCN(c2nncc(-c3ccc(F)cc3)n2)CC1)NC1CCN(CC2=NCCN2)CC1 [Example 151, 3-[4-[[1-[(4,5-dihydro-1H-imidazol-2-yl)methyl]piperidin-4-yl]carbamoylmethyl]piperazin-1-yl]-5-(4-fluorophenyl)-1,2,4-triazine]	16
Cc1nc[nH]c1CN1CCC(NC(=O)CN2CCN(c3nncc(-c4ccc(F)cc4)n3)CC2)CC1 [Example 153]	18
Cc1nc[nH]c1CN1CCC(NC(=O)CN2CCN(c3nncc(-c4ccc(Cl)cc4)n3)CC2)CC1 [Example 154]	1.1
O=C(CN1CCN(c2nncc(-c3ccc(C(F)(F)F)cc3)n2)CC1)NC1CC2COCC(C1)C2O (stereo not drawn) [Example 157a, 3-[4-[[(7-exo-9-endo)-9-hydroxy-3-oxabicyclo[3.3.1]nonan-7-yl]carbamoylmethyl]piperazin-1-yl]-5-(4-trifluoromethylphenyl)-1,2,4-triazine]	14
CN1CCO[C@@H](CNC(=O)CN2CCN(c3nncc(-c4ccc(F)cc4)n3)CC2)C1 [Example 159a, 5-(4-fluorophenyl)-3-[4-[[(4-methylmorpholyn-2-yl)methyl]carbamoylmethyl]piperazin-1-yl]-1,2,4-triazine]	7.7
Clc1ccc(-c2cnnc(N3CCN(C4CCOCC4)CC3)n2)cc1 [Example 178]	5
CC(C)NC(=O)CN1CCN(c2nncc(-c3cccc4c3COCC4)n2)CC1 [Example 218]	9.8
c1nnc(N2CCOCC2)nc1CC1CCCCC1 [Example 233, 5-cyclohexylmethyl-3-morpholino-1,2,4-triazine]	20
c1ccc(COc2cnnc(N3CCOCC3)n2)cc1 [Example 256, 5-benzyloxy-3-morpholino-1,2,4-triazine]	26
Clc1ccc(CNc2cnnc(N3CCOCC3)n2)cc1 [Example 257, 5-(4-chlorobenzyl) amino-3-morpholino-1,2,4-triazine]	13
